Experimental data as given in patent publication US20090137572A1, “2-substituted-4-heteroaryl-pyrimidines useful for the treatment of proliferative disorders” (priority 2004, published 2009).

Assays:
[1] = biological target: CDK7/cyclin H (Homo sapiens, UniProt P50613); test: CDK 7 assay (CTD peptide substrate); format: biochemical; conditions: read-out: Kinase Inhibition pIC50 CDK7-cyclin H (converted)
In short: (§1)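 Radiometric filter-binding read-out: 32P transferred from 100 μM [γ-32P]ATP to biotinyl-(YSPTSPS)4 CTD peptide. Enzyme 0.5-2 μg recombinant human complex; 20 mM MOPS pH 7.2, 15 mM MgCl2, vanadate, DTT; 45 min, 30° C; avidin bound, P81 plate washed, counted.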

[2] = biological target: GSK3b (Homo sapiens, UniProt P49841); test: Kinase assay (radioactive phosphate incorporation), GSK-3b; format: biochemical; conditions: read-out: Kinase Inhibition pIC50 GSK-3b (converted)
GSK3b, sequence (P49841 whole entry, species assumed): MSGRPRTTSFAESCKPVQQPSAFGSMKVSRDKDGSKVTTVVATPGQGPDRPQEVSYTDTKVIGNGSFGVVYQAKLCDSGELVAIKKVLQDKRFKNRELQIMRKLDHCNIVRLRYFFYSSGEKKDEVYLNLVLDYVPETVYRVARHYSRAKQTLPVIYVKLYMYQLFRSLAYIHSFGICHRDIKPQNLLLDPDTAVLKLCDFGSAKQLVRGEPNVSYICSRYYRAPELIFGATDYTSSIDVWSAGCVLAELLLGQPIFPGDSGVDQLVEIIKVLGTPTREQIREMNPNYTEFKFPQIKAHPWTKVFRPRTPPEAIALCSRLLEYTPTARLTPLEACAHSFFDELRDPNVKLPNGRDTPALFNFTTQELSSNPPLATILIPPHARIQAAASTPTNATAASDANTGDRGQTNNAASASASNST
In short: (§2)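 Inhibition was measured as transfer of radiolabelled phosphate from [γ-32P]-ATP (100 μM ATP, 15 mM MgCl2) onto polypeptide substrates by recombinant kinases or kinase complexes. Reactions ran at 30° C in MOPS/β-glycerophosphate buffer, pH 7.4, were stopped on ice and filtered before scintillation counting.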

[3] = biological target: CDK2-cyclin A (Homo sapiens, UniProt P24941); test: Kinase assay (radioactive phosphate incorporation), CDK2-cyclin A; format: biochemical; conditions: read-out: Kinase Inhibition pIC50 CDK2-cyclin A (converted)
In short: as §2

[4] = biological target: CDK4-cyclin D1 (Homo sapiens, UniProt P11802); test: Kinase assay (radioactive phosphate incorporation), CDK4-cyclin D1; format: biochemical; conditions: read-out: Kinase Inhibition pIC50 CDK4-cyclin D1 (converted)
CDK4-cyclin D1, sequence (P11802 whole entry): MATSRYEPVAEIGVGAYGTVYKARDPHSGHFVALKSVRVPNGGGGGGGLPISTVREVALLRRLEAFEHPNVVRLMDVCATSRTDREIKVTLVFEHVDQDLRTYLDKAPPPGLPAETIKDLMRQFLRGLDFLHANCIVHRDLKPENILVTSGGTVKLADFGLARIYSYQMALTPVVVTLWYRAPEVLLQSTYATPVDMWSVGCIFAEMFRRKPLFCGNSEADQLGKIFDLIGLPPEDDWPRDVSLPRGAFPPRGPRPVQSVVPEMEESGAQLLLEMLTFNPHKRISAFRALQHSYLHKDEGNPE
CDK4-cyclin D1, sequence (P24385 whole entry partner): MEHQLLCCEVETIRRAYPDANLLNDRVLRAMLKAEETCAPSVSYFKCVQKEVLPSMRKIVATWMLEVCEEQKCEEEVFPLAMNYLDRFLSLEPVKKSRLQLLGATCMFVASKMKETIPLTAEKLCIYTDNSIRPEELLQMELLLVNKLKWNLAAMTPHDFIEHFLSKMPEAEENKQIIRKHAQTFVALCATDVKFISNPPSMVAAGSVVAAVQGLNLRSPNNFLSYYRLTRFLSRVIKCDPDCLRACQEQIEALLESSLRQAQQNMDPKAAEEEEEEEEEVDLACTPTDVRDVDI
In short: as §2

[5] = biological target: CDK2-cycline E (Homo sapiens, UniProt P24941); test: Kinase assay (radioactive phosphate incorporation), CDK2-cyclin E; format: biochemical; conditions: read-out: Kinase Inhibition pIC50 CDK2-cycline E (converted)
In short: as §2

[6] = biological target: CDK9/cyclin T1 (Homo sapiens, UniProt P50750); test: CDK 9 assay (CTD peptide substrate); format: biochemical; conditions: read-out: Kinase Inhibition pIC50 CDK9-cyclin T1 (converted)
CDK9/cyclin T1, sequence (P50750 whole entry): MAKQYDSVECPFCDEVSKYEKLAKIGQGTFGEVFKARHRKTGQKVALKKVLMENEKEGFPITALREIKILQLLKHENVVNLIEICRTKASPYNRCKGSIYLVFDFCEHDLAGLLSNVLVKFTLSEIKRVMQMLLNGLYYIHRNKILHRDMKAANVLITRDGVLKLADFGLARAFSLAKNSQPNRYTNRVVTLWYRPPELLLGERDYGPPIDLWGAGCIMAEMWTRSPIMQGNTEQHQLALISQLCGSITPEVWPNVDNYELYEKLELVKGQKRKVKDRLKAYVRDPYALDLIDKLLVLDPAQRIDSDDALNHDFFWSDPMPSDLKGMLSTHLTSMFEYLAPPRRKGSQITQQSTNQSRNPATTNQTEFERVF
CDK9/cyclin T1, sequence (O60563 whole entry partner): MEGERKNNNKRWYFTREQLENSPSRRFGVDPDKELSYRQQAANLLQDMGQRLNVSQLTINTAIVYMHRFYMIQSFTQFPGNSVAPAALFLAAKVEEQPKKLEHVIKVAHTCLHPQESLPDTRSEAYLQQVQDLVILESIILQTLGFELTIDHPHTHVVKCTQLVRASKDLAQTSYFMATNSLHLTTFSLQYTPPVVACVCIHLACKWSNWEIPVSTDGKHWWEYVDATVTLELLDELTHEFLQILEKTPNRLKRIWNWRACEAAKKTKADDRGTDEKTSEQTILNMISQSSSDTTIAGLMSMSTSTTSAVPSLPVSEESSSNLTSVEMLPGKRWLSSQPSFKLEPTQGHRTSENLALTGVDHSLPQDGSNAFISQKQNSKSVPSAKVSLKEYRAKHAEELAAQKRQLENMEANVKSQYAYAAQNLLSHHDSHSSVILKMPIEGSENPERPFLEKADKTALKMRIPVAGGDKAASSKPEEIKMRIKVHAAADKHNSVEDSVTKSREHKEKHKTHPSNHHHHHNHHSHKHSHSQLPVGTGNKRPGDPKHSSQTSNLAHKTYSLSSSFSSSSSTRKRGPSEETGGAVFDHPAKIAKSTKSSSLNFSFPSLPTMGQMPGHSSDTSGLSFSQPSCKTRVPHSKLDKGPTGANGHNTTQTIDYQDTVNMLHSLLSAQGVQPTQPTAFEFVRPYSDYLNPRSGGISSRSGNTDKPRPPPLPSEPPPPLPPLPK
In short: as §1

[7] = biological target: CDK1-cyclin B (Homo sapiens, UniProt P06493); test: Kinase assay (radioactive phosphate incorporation), CDK1-cyclin B; format: biochemical; conditions: read-out: Kinase Inhibition pIC50 CDK1-cyclin B (converted)
CDK1-cyclin B, sequence (P06493 whole entry): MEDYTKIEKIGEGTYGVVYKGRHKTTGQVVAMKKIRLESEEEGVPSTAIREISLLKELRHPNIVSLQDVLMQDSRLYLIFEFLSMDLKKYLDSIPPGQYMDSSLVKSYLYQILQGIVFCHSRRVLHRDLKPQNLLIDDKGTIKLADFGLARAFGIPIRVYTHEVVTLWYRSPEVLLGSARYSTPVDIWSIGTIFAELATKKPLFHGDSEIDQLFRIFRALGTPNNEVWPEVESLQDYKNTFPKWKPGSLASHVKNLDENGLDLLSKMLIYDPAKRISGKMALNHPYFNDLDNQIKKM
CDK1-cyclin B, sequence (P14635 whole entry partner): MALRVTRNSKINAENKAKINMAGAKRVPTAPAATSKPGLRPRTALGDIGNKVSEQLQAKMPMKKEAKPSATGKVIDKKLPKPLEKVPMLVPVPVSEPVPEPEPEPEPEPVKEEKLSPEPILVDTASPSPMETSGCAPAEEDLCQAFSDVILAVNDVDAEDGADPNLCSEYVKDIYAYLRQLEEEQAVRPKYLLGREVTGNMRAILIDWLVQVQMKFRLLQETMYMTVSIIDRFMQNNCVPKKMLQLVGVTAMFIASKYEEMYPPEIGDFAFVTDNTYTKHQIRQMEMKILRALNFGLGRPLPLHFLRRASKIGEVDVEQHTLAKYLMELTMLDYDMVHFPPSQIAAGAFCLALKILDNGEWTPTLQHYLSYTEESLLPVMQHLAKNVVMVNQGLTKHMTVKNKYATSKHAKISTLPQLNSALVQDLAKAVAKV
In short: as §2

[8] = biological target: T1, Flt3 (FMS-like tyrosine kinase-3) (Homo sapiens, UniProt P36888); test: Kinase assay (radioactive phosphate incorporation), Flt3; format: biochemical; conditions: pIC50 is -log(IC50, M), read-out: Kinase Inhibition pIC50 Flt3 (converted)
T1 sequence (P36888 27-993): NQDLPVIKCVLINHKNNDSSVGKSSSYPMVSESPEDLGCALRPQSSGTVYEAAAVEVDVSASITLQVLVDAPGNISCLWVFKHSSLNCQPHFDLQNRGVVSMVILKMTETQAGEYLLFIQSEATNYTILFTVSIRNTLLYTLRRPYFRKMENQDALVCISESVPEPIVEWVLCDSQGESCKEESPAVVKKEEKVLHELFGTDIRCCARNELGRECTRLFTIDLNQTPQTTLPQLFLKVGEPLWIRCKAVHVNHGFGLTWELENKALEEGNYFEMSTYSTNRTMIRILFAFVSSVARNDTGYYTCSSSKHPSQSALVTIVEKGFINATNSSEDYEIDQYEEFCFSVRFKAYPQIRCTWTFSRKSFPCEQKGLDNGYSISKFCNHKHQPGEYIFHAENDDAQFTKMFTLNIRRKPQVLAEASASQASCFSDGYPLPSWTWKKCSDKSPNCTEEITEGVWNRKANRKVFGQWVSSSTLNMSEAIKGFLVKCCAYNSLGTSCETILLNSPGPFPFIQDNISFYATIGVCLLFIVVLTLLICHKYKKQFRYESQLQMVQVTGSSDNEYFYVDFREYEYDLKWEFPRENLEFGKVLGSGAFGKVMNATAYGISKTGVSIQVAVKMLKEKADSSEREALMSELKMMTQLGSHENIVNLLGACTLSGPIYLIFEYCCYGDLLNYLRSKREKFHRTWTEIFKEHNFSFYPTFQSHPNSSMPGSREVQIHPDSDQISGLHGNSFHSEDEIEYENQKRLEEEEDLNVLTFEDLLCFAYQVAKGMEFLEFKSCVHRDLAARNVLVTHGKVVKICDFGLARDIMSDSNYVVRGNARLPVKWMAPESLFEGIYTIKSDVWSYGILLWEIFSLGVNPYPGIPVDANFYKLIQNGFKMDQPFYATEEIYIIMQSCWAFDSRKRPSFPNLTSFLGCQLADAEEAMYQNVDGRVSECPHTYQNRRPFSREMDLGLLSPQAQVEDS
In short: as §2

[9] = biological target: T2, Aurora A kinase (Homo sapiens, UniProt O14965); test: Aurora-A (human) kinase assay (Kemptide substrate); format: biochemical; conditions: pIC50 is -log(IC50, M); 15 μM ATP; read-out: Kinase Inhibition pIC50 Aurora A kinase (converted)
T2 construct: purchased
T2 sequence (O14965 1-403): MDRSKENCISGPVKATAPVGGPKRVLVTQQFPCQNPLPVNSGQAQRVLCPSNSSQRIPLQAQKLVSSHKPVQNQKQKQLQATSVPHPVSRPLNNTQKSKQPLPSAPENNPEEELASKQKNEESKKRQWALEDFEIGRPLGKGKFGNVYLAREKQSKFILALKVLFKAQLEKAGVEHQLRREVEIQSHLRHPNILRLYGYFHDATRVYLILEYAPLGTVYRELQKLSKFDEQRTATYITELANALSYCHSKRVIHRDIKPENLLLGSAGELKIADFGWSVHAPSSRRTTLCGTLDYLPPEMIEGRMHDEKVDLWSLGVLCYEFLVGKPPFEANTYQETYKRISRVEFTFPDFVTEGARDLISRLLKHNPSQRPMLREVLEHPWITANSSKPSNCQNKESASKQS
In short: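 Kemptide (LRRASLG, 200 μM) phosphorylation by 5-10 ng commercial aurora-A measured as [γ-33P] incorporation at 15 μM ATP with 10 mM Mg acetate, pH 7.0 MOPS buffer. Reaction ran 40 min at room temperature; acid-stopped, captured on P81 filters, scintillation read.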

CDK7/cyclin H, sequence (P50613 whole entry): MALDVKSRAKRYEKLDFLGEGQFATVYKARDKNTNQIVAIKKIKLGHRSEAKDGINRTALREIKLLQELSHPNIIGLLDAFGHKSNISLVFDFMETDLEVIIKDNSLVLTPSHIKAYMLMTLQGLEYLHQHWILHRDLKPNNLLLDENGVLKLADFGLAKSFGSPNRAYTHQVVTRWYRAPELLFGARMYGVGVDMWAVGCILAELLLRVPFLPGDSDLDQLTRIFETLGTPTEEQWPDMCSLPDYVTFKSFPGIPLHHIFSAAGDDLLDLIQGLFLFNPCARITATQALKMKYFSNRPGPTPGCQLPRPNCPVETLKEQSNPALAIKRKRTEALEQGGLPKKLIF
CDK7/cyclin H, sequence (P51946 whole entry partner): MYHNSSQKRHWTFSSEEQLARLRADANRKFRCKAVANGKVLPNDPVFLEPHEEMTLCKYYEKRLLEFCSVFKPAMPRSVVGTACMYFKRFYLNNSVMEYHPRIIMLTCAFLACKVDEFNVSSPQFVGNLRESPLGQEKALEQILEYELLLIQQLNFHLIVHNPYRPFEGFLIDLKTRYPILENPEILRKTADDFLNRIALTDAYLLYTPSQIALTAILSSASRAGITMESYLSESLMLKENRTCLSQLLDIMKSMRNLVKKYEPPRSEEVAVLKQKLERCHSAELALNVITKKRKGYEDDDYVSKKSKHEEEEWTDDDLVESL

| Structure (SMILES) | IC50 [1] [nM] | IC50 [2] [nM] | melting point [°C] | IC50 [3] [nM] | IC50 [4] [nM] | IC50 [5] [nM] | IC50 [6] [nM] | IC50 [7] [nM] | IC50 [8] [nM] | IC50 [9] [nM] |
| --- | --- | --- | --- | --- | --- | --- | --- | --- | --- | --- |
| CCNc1nc(C)c(-c2ccnc(Nc3cccc(S(=O)(=O)NCCO)c3)n2)s1 [Compound 75, 3-[4-(2-Ethylamino-4-methyl-thiazol-5-yl)-pyrimidin-2-ylamino]-N-(2-hydroxy-ethyl)-benzenesulfonamide] | 398 | 794 | 124 to 125 | 1260 | 126 | 200 | 63.1 | 1000 | 63.1 |  |
| CNc1nc(C)c(-c2ccnc(Nc3cccc(S(=O)(=O)NCCO)c3)n2)s1 [Compound 76, N-(2-Hydroxy-ethyl)-3-[4-(4-methyl-2-methylamino-thiazol-5-yl)-pyrimidin-2-ylamino]-benzenesulfonamide] | 794 | 501 | 189 to 190 | 1580 | 100 | 316 | 63.1 | 1260 | 100 | 39.8 |
| Cc1nc(N)sc1-c1ccnc(Nc2cccc(S(=O)(=O)NCCO)c2)n1 [Compound 77, 3-[4-(2-Amino-4-methyl-thiazol-5-yl)-pyrimidin-2-ylamino]-N-(2-hydroxy-ethyl)-benzenesulfonamide] | 398 | 316 |  | 1000 | 126 | 126 | 25.1 | 1000 | 158 | 100 |
